{"source": "patent US20090270342A1", "about": "“IMMUNOREGULATORY AGENT” (priority 2006, published 2009)", "key": {"IgA in feces": {"system": "IgA in feces", "assay": "Amount of IgA in feces of mice ingesting lactosucrose diet (Experiment 1)", "format": "in vivo", "conditions": "Lactosucrose 5% (w/w) diet", "protocol": "An experiment for investigating the effect of lactosucrose ingestion on the enhancement of gut immunity was carried out by measuring the amount of IgA in feces of mice. Female BALB/c mice (six weeks old) were preliminary reared for one week on “AIN-93G”, containing 40% (w/w) of corn starch, 20% (w/w) of casein, 13.2% (w/w) of α-corn starch, 10% (w/w) of sucrose, 7% (w/w) of soybean oil, 5% (w/w) of cellulose, 3.5% (w/w) of mineral mixture, 1% (w/w) of vitamin mixture, 0.3% (w/w) of L-cystine, and 0.0014% (w/w) of hydroquinone, which is a standard purified diet for researching the nutrition of mice and rats published by American National Institute of Nutrition in 1993. Successively, “LS-90P”, a saccharide composition comprising 91.8% (w/w), onadrysolid basis, of lactosucrose commercialized by ENSUIKO Sugar Refining Co., Ltd., Tokyo, Japan, was incorporated into the above purified diet, in which corn starch equal to the amount of the saccharide composition comprising lactosucrose had been removed, to give a lactosucrose content of 5% (w/w), and five mice/group were allowed to ingest the resulting test diet freely. Mice, allowed to ingest “AIN-93G”, as the standard purified diet, were used as control. Then, fresh feces were collected from the mice at one week, two weeks, three weeks, and four weeks after starting the administration of the test diet and the control diet, and the amount of IgA in the feces was measured by ELISA using anti-IgA antibody (Mouse IgA ELISA Quantitation Kit produced by Bethyl Laboratories, Inc., Texas, USA). The amount of IgA was expressed by mg/g-wet feces and the average value of those from five mice was determined. The percentages in parentheses in Table 1 mean relative values to those of the control at respective weeks."}, "[1]": {"system": "anti-Cry j 1-IgE, IgG1 in serum", "assay": "Anti-Cry j 1 antibody in serum of Cry j 1/alum-sensitized mice (Experiment 5)", "format": "in vivo", "conditions": "for Anti-Cry J 1-IgG1 in serum / Anti-Cry J 1-IgG1 in serum, relative to control: two weeks after the second sensitization", "protocol": "In order to investigate the effect of lactosucorse on systemic immunity, antibody level in serum was measured. Similarly as in Experiment 1, female BALB/c mice (six weeks old) were preliminary reared for one week on “AIN-93G”, the same standard purified diet as used in Experiment 1. Successively, “NYU-KA OLIGO 700”, a saccharide composition comprising 71.4% (w/w), on a dry solid basis, of lactosucrose commercialized by Hayashibara Shoji Inc., Okayama, Japan, was incorporated into the above purified diet, in which corn starch equal to the amount of the saccharide composition comprising lactosucrose had been removed, to give a lactosucrose content of 2% (w/w) or 5% (w/w), and five to seven mice/group were allowed to ingest the resulting test diet freely. Mice, allowed to ingest “AIN-93G”, as the standard purified diet, were used as control. At 10 days after from starting the administration of the test diet, mice were sensitized to antigen by administrating 20 μg of ovalbumin (OVA) (grade V, commercialized by Sigma Corporation) as antigen and 4.5 mg of “IMJECT®”, alum commercialized by Pierce ThermoScientific as adjuvant, into the peritoneal cavity. Successively, 15 days after from the first sensitization, the second sensitization was carried out by the same procedure. The blood was collected from caudal vein of mice at one, two, and three weeks after from the second sensitization, the serum was collected by centrifugation, and the amount of IgE to OVA was measured by EIA. In the cases of IgG1 and IgG2a, the amount of antibody was measured using serum collected at two weeks after from the second sensitization. The IgE and IgG2a titers were measured by capture EIA and IgG1 titer was measured by indirect EIA. Each titer was calculated by calibration curve prepared by using anti-OVA mouse serum (IgE: 1.760 U/ml, IgG1: 128,000 U/ml, IgG2a: 7,040 u/ml) as a standard serum. The amounts of IgE at one, two, or three weeks after from the second sensitization are in Table 5, and the amounts of IgG1 and IgG2a of two weeks after from the second sensitization are in Table 6. The percentages in parentheses in tables mean a relative value to the antibody concentration in serum of the control mice.\nIn order to investigate the usefulness of lactosucrose ingestion for preventing or treating allergy to cedar pollen, the effect of lactosucrose for suppressing the production of IgE, caused by Cry j 1, a cedar pollen allergen, was investigated as follows. Except for using 20 μg of “PURIFIED CEDAR POLLEN ALLERGEN Cry j 1”, Cry j 1 commercialized by Seikagaku Corporation, Tokyo, Japan, as a substitute for OVA, the experiment was carried out by the same procedure as in Experiment 4, and the amount of anti-Cry j 1-IgE was measured at one and two weeks after the second sensitization. Further, the amount of anti-Cry j 1-IgG1 was also measured at two weeks after the second sensitization. The amounts of anti-Cry j 1-IgE and anti-Cry j 1-IgG1 were measured by the same procedure as in Experiment 4 except for using “PURIFIED CEDAR POLLEN ALLERGEN Cry j 1-Biotin”, commercialized by Seikagaku Corporation, Tokyo, Japan, as a solid phase. The results for IgE and IgG1 are in Tables 7 and 8, respectively."}}, "data": [{"smiles": "OC[C@H]1O[C@@H](O[C@H]2[C@H](O)[C@@H](O)[C@@H](O[C@]3(CO)O[C@H](CO)[C@@H](O)[C@@H]3O)O[C@@H]2CO)[C@H](O)[C@@H](O)[C@H]1O", "note": "[Lactosucrose, β-D-galactosyl-(1,4)-α-D-glucosyl-(1,2)-β-D-fructoside]", "values": [{"measurement": "Amount of IgA in feces, relative value to control", "setting": "IgA in feces; 1 week after", "result": "(232%)"}, {"measurement": "Amount of IgA in feces", "setting": "IgA in feces; 1 week after (8 weeks old)", "result": "13 ± 2.6", "unit": "mg/g"}, {"measurement": "Amount of IgA in feces, relative value to control", "setting": "IgA in feces; 2 weeks after", "result": "(285%)"}, {"measurement": "Amount of IgA in feces", "setting": "IgA in feces; 2 weeks after (9 weeks old)", "result": "5.7 ± 2.3", "unit": "mg/g"}, {"measurement": "Amount of IgA in feces, relative value to control", "setting": "IgA in feces; 3 weeks after", "result": "(543%)"}, {"measurement": "Amount of IgA in feces", "setting": "IgA in feces; 3 weeks after (10 weeks old)", "result": "7.6 ± 1.4", "unit": "mg/g"}, {"measurement": "Amount of IgA in feces, relative value to control", "setting": "IgA in feces; 4 weeks after", "result": "(755%)"}, {"measurement": "Amount of IgA in feces", "setting": "IgA in feces; 4 weeks after (11 weeks old)", "result": "8.3 ± 1.9", "unit": "mg/g"}, {"measurement": "Anti-Cry j 1-IgE in serum", "setting": "[1]; Lactosucrose 2% (w/w) diet, one week after the 2nd sensitization", "result": "351 ± 277", "unit": "U/ml"}, {"measurement": "Anti-Cry j 1-IgE in serum", "setting": "[1]; Lactosucrose 2% (w/w) diet, two weeks after the 2nd sensitization", "result": "239 ± 180", "unit": "U/ml"}, {"measurement": "Anti-Cry J 1-IgG1 in serum", "setting": "[1]; Lactosucrose 2% (w/w) diet", "result": "10.3 ± 6.01 ×10^4 U/ml"}, {"measurement": "Anti-Cry j 1-IgE in serum, relative to control", "setting": "[1]; Lactosucrose 2% (w/w), one week after the 2nd sensitization", "result": "(44%)"}, {"measurement": "Anti-Cry j 1-IgE in serum, relative to control", "setting": "[1]; Lactosucrose 2% (w/w), one week after the 2nd sensitization, listed as lactosucrose", "result": 44, "unit": "%"}, {"measurement": "Anti-Cry j 1-IgE in serum, relative to control", "setting": "[1]; Lactosucrose 2% (w/w), two weeks after the 2nd sensitization", "result": "(23%)"}, {"measurement": "Anti-Cry j 1-IgE in serum, relative to control", "setting": "[1]; Lactosucrose 2% (w/w), two weeks after the 2nd sensitization, listed as lactosucrose", "result": 23, "unit": "%"}, {"measurement": "Anti-Cry J 1-IgG1 in serum, relative to control", "setting": "[1]; Lactosucrose 2% (w/w)", "result": "(80%)"}, {"measurement": "Anti-Cry j 1-IgE in serum", "setting": "[1]; Lactosucrose 5% (w/w) diet, one week after the 2nd sensitization", "result": "620 ± 157", "unit": "U/ml"}, {"measurement": "Anti-Cry j 1-IgE in serum", "setting": "[1]; Lactosucrose 5% (w/w) diet, two weeks after the 2nd sensitization", "result": "404 ± 114", "unit": "U/ml"}, {"measurement": "Anti-Cry J 1-IgG1 in serum", "setting": "[1]; Lactosucrose 5% (w/w) diet", "result": "7.51 ± 2.89 ×10^4 U/ml"}, {"measurement": "Anti-Cry j 1-IgE in serum, relative to control", "setting": "[1]; Lactosucrose 5% (w/w), one week after the 2nd sensitization", "result": "(77%)"}, {"measurement": "Anti-Cry j 1-IgE in serum, relative to control", "setting": "[1]; Lactosucrose 5% (w/w), two weeks after the 2nd sensitization", "result": "(38%)"}, {"measurement": "Anti-Cry J 1-IgG1 in serum, relative to control", "setting": "[1]; Lactosucrose 5% (w/w)", "result": "(58%)"}]}]}
